Assay results: US8916602B2, “Fusarisetin compounds, and use thereof” (Korea Research Institute of Bioscience and Biotechnology, priority 2010, dated 2014)
Values after ≈ are worked out from the molar mass of the structure shown.

Columns and labels:
Type in all cases: cell-based
[1] = tested on: human breast cancer cell line (MDA-MB-231); experiment: Inhibition of cancer cell proliferation (WST-8 cell survival), MDA-MB-231; settings: MDA-MB-231 cell line, 48 hours culture with compound, WST-8, OD450
Procedure: (§1) Following experiment was performed to investigate the inhibitory activity of the compounds 1 and 2 of the present invention on the proliferation of cancer cells.
(§2) Particularly, human breast cancer cell line (MDA-MB-231, 5.0×10^3 cells per well), mouse fibroblast cell line (3Y1, 5.0×10^3 cells per well), and human liver cancer cell line (Hep3B, 5.0×10^3 cells per well) were cultured respectively in DMEM (Dulbecco's modification of Eagles medium, supplemented with 10% FBS). And human chronic myeloid leukemia cell line (K562, 3.0×10^4 cells per well) and human promyelocytic leukemia cell line (HL-60, 1.0×10^5 cells per well) were cultured respectively in RPMI 1640 (Roswell Park Memorial Institute 1640 medium, supplemented with 10% FBS). Each cell line cultured above was treated with different concentrations of the compound 1 and compound 2 (100 μg/ml, 30 μg/ml, 10 μg/ml, 3 μg/ml, and 1 μg/ml), followed by culture in a 5% CO2 incubator for 48 hours at 37° C. WST-8 reagent (2-(2-methoxy-4-nitrophenyl)-3-(4-nitrophenyl)-5-(2,4-disulfophenyl)-2H-tetrazolium, monosodium salt) producing high sensitive water soluble formazan was added thereto, followed by further culture for 24 hours. OD450 was measured to calculate cell survival rate.

[2] = tested on: mouse fibroblast cell line (3Y1); experiment: Inhibition of cell proliferation (WST-8 cell survival), 3Y1; settings: 3Y1 cell line, 48 hours culture with compound, WST-8, OD450
Procedure: as §1, §2

[3] = tested on: human liver cancer cell line (Hep3B); experiment: Inhibition of cancer cell proliferation (WST-8 cell survival), Hep3B; settings: 48 hours culture with compound, WST-8, OD450
Procedure: as §1, §2

[4] = tested on: human chronic myeloid leukemia cell line (K562); experiment: Inhibition of cancer cell proliferation (WST-8 cell survival), K562; settings: 48 hours culture with compound, WST-8, OD450
Procedure: as §1, §2

[5] = tested on: human promyelocytic leukemia cell line (HL-60); experiment: Inhibition of cancer cell proliferation (WST-8 cell survival), HL-60; settings: HL-60 cell line, 48 hours culture with compound, WST-8, OD450
Procedure: as §1, §2

[6] = tested on: human breast cancer cells (MDA-MB-231 cells); experiment: Inhibition of cancer cell metastasis, trans-well chamber (Matrigel Invasion Chamber); settings: migration induced by 10% FBS, 24 hours, tested at 30, 10 and 3 μg/ml
Procedure: Trans-well chamber (BioCoat™ Matrigel™ Invasion Chamber, pore size 8 μm, BD Biosciences, Bedford, Mass.) was used for the investigation of inhibitory activity of the compounds of the present invention on cancer cell metastasis. Particularly, human breast cancer cells (MDA-MB-231 cells) were distributed on the upper part of the chamber at the density of 1.0×10^5 cells per well. DMEM (Dulbecco's modification of Eagles medium, serum-free) was used for the culture. 30 minutes later, the compounds 1 and 2 were added to the upper part of the chamber at different concentrations of 30 μg/ml, 10 μg/ml, and 3 μg/ml, respectively. 30 minutes later, 10% FBS was added to the bottom of the chamber, followed by culture in a 5% CO2 incubator at 37° C. for 24 hours. 24 hours later, the cells migrated through porous membrane which had been induced by 10% FBS in the bottom of the chamber were fixed with 100% MeOH, followed by staining with Wright stain. Upon completion of the staining, the migrated cells were counted under microscope.

Structure (SMILES): C[C@H]1CC[C@H]2[C@@H](C=C[C@@H]3[C@H]4[C@H](C)O[C@]5(O)[C@@H](CO)N(C)C(=O)[C@]45C(=O)[C@@]32C)C1 [compound 2, fusarisetin B]
- IC50 [1]: 76.5 µg/mL (≈ 196 µM)
- IC50 [2]: 62.2 µg/mL (≈ 160 µM)
- IC50 [3]: 27.2 µg/mL (≈ 69.8 µM)
- IC50 [4]: 49.3 µg/mL (≈ 127 µM)
- IC50 [5]: 29.4 µg/mL (≈ 75.5 µM)
- ED100 indicating the concentration capable of inhibiting metastasis of human breast cancer cell line by 100% [6]: 10 µg/mL

Structure (SMILES): C[C@H]1CC[C@H]2[C@@H](C=C[C@@H]3[C@H]4[C@@H](C)O[C@]5(O)[C@@H](CO)N(C)C(=O)[C@]45C(=O)[C@@]32C)C1 [compound 1, fusarisetin A]
- IC50 [1]: 69.5 µg/mL (≈ 178 µM)
- IC50 [2]: 67.5 µg/mL (≈ 173 µM)
- IC50 [3]: 34.7 µg/mL (≈ 89.1 µM)
- IC50 [4]: 61.3 µg/mL (≈ 157 µM)
- IC50 [5]: 57.7 µg/mL (≈ 148 µM)
- ED100 indicating the concentration capable of inhibiting metastasis of human breast cancer cell line by 100% [6]: 10 µg/mL
